From patent publication US20040043904A1, “N-(4-pyrazolyl) amide derivatives, chemicals for agricultural and horticultural use, and usage of the same” (priority 2003, published 2004)

Tested on: green peach aphid (Myzus persicae)
Experiment: Insecticidal effect on green peach aphid (Test Example 7)
Format: in vivo
Settings: 144 h, stems and leaves of Chinese cabbage sprayed, parasites counted six days after spraying, read-out: insecticidal effect (control efficacy)
Text: Insecticidal Effect on Green Peach Aphid (Myzus persicae)
A Chinese cabbage plant was planted in each of plastic pots with a diameter of 8 cm and a height of 8 cm, and green peach aphids were propagated on the plant. The number of parasites of each pot was counted.
Then, the stems and leaves were sufficiently sprayed with the test solution. After air-drying, the pots were allowed to stand in a greenhouse.
Control efficacy (%)=100[(T×Ca)/(Ta×C)]×100
Ta: number of parasites before spraying in treated group,
T : number of parasites after spraying in treated group,
Ca: number of parasites before spraying in untreated group,
[…]: number of parasites after spraying in untreated group.

**Q.** `Cc1nn(C)c(Cl)c1NC(=O)Cc1ccc(-c2ccc(OC(F)(F)F)cc2)cc1` [Compound B-23, 5-chloro-4-(4-(4-trifluoromethoxyphenyl)phenylacetylamino)-1,3-dimethylpyrazole] was tested. Which pest or weed control at 500 ppm did it give?
**A.** 100%

**Q.** Which pest or weed control at 500 ppm does the source give for `Cc1nn(C)c(Cl)c1NC(=O)Cc1ccc2oc(CC(C)(C)C)nc2c1` [Compound C-1, 5-chloro-4-(2-(2,2-dimethylpropyl)benzoxazole-5-ylacetylamino)-1,3-dimethylpyrazole] here?
**A.** 100%

**Q.** `CCn1ncc(NC(=O)Cc2ccc(Oc3ccc(C(F)(F)F)cn3)c(OC)c2)c1Cl` [Compound D-33, 5-chloro-4-(3-methoxy-4-(5-trifluoromethylpyridine-2-yloxy)phenylacetylamino)-1-ethylpyrazole] was tested. Which pest or weed control at 500 ppm did it give?
**A.** 100%

**Q.** Which pest or weed control at 500 ppm does the source give for `COc1cc(CC(=O)Nc2cnn(CCCl)c2Cl)ccc1Oc1ccc(C(F)(F)F)cn1` [Compound D-71, 5-chloro-4-(3-methoxy-4-(5-trifluoromethylpyridine-2-yloxy)phenylacetylamino)-1-(2-chloroethyl) pyrazole] here?
**A.** 100%

**Q.** `CCn1ncc(NC(=O)Cc2ccc(Oc3ccc(C(F)(F)F)nn3)c(OC)c2)c1Cl` [Compound D-78, 5-chloro-4-(3-methoxy-4-(6-trifluoromethylpyridazine-3-yloxy)phenylacetylamino)-1-ethylpyrazole] was tested. Which pest or weed control at 500 ppm did it give?
**A.** 100%

**Q.** With `CCn1ncc(NC(=O)Cc2ccc(Oc3ccc(C(F)(F)F)cn3)c(OC)c2)c1Br` [Compound D-79, 5-bromo-4-(3-methoxy-4-(5-trifluoromethylpyridine-2-yloxy)phenylacetylamino)-1-ethylpyrazole] as the compound, how does the pest or weed control at 500 ppm read?
**A.** 100%

**Q.** How did the pest or weed control at 500 ppm turn out when `CCn1ncc(NC(=O)Cc2ccc(Oc3nc(C(F)(F)F)cs3)c(OC)c2)c1Cl` [Compound D-94, 5-chloro-4-(3-methoxy-4-(4-trifluoromethylthiazole-2-yloxy)phenylacetylamino)-1-ethylpyrazole] was run?
**A.** 100%
